Test system: GFP expressing U2OS cells and Hek293 cells
Assay: Adhesion peptide screening for low fluorescence/high adherence properties (FABS, microscope)
Format: cell-based, Human
Details: re-synthesized peptides on beads
Description: An adhesion D-amino peptide library was synthesized (500,000 members) as described above in Example 1 and screened for low fluorescence/high adherence properties. This was done in 4 steps:
1) Selection of low fluorescent beads by Fluorescence Activated Bead Sorting (FABS).
The 500,000 member adhesion peptide library was FABSorted and 150,000 low fluorescent beads were isolated.
2) Selection of beads with good cell adhesion properties.
The 150,000 low fluorescent beads were incubated with GFP expressing U2OS cells followed by FABS sorting for high fluorescence (high cell adhesion). 536 beads were isolated.
3) Identification and isolation of beads with high Hek293 cell adherence properties.
The 536 beads were cleared for U2OS cells and incubated with GFP expressing Hek293 cells. 47 beads with high cell adhesion properties were isolated using a fluorescence microscope.
4) Sequence elucidation and re-synthesis of selected peptides.
22 peptides were sequenced and six of them were re-synthesized. Based on Structure-Activity of the six peptides, four additional ones (AP-7 […] AP-10) were synthesized.

Substance: arg-gln-arg-ile-arg (RQRIR; Cell adhesion peptide) [SEQ IS 35]
- overall performance (low fluorescence/high adherence properties): best overall performance

— patent US20110319274A1, “Identification of Compounds Modifying a Cellular Response” (Carlsberg A/S, priority 2004, published 2011)
